From publication PMC5448077, “Development of an orally available inhibitor of CLK1 for skipping a mutated dystrophin exon in Duchenne muscular dystrophy” (Scientific Reports, 2017)

How the values were obtained:
Assay in all cases: biochemical
DCAMKL2 = target: T1, DCAMKL2 (Homo sapiens, UniProt Q8N568)
T1 construct: gene DCLK2
Method in brief: (§1)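 Human kinases phosphorylating kinase-specific synthetic peptides, assayed by mobility shift (MSA) or IMAP fluorescence polarization, in 20 mM HEPES pH 7.5, 0.01% Triton X-100, 2 mM DTT with substrate/ATP-metal. Reactions ran 1 or 5 h at room temperature; activity = P/(P + S) from product and substrate peak heights.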

RET(Y791F) = RET(Y791F) (Homo sapiens, UniProt P07949, Y791F)
Chain of RET(Y791F) (P07949 whole entry Y791F): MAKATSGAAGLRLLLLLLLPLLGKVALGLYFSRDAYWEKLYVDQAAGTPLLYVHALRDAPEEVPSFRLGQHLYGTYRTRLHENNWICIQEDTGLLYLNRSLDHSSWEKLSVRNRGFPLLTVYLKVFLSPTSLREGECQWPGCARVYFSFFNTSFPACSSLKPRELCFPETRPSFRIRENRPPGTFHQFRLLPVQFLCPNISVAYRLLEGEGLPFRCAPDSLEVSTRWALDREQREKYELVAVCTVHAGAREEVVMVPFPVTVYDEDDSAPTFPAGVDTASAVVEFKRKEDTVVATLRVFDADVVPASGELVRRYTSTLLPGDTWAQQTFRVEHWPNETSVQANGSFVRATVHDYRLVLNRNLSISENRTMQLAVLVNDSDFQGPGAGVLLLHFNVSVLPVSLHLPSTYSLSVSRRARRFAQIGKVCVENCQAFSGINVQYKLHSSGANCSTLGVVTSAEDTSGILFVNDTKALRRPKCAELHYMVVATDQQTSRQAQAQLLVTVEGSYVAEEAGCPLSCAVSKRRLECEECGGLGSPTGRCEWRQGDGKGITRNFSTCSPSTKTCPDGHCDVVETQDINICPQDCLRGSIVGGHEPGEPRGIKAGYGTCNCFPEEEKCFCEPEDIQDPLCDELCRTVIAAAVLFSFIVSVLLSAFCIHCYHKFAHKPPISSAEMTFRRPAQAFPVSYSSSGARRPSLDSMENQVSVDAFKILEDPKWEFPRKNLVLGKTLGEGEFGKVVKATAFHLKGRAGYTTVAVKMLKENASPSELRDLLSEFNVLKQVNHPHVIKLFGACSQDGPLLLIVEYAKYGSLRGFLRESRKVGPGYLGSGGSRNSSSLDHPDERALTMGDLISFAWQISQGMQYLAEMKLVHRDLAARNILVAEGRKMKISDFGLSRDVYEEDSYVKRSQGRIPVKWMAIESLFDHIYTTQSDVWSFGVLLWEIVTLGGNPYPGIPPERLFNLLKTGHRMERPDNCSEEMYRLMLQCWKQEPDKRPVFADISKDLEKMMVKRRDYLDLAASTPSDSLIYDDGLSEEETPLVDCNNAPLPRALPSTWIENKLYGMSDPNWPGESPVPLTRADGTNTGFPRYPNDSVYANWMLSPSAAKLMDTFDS
Method in brief: as §1

SRM = target: T2, SRM (Homo sapiens, UniProt Q9H3Y6)
T2 construct: gene SRMS
T2 sequence (Q9H3Y6 whole entry): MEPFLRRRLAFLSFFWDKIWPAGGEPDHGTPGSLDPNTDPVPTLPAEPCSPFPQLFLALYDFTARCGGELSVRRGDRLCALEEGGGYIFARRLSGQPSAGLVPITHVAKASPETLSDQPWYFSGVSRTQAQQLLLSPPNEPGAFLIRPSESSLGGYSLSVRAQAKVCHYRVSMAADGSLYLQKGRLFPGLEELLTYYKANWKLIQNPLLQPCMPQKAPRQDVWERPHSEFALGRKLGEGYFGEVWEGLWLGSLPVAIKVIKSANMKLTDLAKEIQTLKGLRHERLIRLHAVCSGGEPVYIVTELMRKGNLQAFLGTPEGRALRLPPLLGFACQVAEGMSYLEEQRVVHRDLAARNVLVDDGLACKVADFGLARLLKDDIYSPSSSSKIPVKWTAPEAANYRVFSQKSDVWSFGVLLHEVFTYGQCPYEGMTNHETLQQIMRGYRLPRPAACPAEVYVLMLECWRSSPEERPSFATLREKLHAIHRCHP
Method in brief: as §1

LOK = target: T3, LOK (Homo sapiens, UniProt O94804)
T3 construct: gene STK10
Method in brief: as §1

RSK1 = target: T4, RSK1 (Homo sapiens, UniProt Q15418)
T4 construct: gene RPS6KA1
T4 sequence (Q15418 whole entry): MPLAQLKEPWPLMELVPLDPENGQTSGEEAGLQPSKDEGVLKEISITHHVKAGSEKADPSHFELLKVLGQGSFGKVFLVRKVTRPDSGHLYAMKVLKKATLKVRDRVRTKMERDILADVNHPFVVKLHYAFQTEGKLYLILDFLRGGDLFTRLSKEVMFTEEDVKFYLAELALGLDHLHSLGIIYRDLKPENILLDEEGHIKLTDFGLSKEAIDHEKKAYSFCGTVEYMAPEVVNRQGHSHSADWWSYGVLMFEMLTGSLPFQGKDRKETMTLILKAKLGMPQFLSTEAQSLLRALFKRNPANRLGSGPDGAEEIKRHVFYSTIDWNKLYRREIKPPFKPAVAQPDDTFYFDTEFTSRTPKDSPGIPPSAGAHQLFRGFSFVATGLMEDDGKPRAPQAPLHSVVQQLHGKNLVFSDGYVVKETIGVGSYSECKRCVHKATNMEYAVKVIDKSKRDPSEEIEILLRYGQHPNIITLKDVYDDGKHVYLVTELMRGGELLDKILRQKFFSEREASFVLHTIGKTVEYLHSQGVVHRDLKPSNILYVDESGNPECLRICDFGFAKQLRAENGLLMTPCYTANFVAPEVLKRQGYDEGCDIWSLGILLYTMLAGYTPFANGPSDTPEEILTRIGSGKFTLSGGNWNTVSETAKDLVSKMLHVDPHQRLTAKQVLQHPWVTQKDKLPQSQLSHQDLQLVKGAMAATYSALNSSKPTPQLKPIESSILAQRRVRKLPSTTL
Method in brief: as §1

CK1γ2 = target: T5, CK1γ2 (Homo sapiens, UniProt P78368)
T5 construct: gene CSNK1G2
Method in brief: as §1

TBK1 = TBK1 (Homo sapiens, UniProt Q9UHD2)
Chain of TBK1 (Q9UHD2 whole entry): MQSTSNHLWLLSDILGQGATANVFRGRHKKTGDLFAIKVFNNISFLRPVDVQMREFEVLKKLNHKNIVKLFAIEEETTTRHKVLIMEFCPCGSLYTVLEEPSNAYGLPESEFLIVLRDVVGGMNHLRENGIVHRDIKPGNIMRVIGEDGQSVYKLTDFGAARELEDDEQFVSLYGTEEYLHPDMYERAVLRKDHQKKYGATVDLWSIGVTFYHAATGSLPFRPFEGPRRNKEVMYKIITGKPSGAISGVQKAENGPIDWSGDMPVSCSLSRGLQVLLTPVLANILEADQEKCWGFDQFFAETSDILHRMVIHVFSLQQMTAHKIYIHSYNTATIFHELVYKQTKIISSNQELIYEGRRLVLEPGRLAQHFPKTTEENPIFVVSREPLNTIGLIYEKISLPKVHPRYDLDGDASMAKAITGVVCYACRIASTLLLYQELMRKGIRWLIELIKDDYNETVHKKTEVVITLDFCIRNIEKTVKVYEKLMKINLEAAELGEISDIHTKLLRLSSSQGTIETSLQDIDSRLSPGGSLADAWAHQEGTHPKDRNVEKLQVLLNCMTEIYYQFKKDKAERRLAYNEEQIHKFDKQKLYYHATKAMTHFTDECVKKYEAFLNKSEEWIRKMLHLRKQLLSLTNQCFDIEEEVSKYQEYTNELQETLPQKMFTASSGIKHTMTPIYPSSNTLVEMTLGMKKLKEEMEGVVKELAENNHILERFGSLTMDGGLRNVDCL
Method in brief: as §1

LCK = LCK (Homo sapiens, UniProt P06239)
Method in brief: as §1

PASK = PASK (Homo sapiens, UniProt Q96RG2)
Method in brief: as §1

LYNb = target: T6, LYNb (Homo sapiens, UniProt P07948)
T6 construct: gene LYN; isoform b
T6 sequence (P07948 whole entry, canonical isoform): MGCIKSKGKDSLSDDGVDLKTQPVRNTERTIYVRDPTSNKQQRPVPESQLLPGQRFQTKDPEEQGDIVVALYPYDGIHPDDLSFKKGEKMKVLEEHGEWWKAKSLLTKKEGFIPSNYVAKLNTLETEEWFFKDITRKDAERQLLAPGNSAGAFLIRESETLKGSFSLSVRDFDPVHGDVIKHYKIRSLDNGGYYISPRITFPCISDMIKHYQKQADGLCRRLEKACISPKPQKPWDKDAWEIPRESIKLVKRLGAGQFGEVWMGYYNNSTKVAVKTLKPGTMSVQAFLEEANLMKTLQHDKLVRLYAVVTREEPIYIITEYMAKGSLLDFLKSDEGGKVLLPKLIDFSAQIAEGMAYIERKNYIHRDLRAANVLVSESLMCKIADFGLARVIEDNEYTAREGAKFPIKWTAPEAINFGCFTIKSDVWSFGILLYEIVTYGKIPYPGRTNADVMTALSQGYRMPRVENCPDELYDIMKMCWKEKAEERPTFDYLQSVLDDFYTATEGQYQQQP
Method in brief: as §1

AurC = target: T7, AurC (Homo sapiens, UniProt Q9UQB9)
T7 construct: gene AURKC
Method in brief: as §1

JAK3 = JAK3 (Homo sapiens, UniProt P52333)
Method in brief: as §1

ACK = target: T8, ACK (Homo sapiens, UniProt Q07912)
T8 construct: gene TNK2
Method in brief: as §1

PAK1 = PAK1 (Homo sapiens, UniProt Q13153)
Chain of PAK1 (Q13153 whole entry): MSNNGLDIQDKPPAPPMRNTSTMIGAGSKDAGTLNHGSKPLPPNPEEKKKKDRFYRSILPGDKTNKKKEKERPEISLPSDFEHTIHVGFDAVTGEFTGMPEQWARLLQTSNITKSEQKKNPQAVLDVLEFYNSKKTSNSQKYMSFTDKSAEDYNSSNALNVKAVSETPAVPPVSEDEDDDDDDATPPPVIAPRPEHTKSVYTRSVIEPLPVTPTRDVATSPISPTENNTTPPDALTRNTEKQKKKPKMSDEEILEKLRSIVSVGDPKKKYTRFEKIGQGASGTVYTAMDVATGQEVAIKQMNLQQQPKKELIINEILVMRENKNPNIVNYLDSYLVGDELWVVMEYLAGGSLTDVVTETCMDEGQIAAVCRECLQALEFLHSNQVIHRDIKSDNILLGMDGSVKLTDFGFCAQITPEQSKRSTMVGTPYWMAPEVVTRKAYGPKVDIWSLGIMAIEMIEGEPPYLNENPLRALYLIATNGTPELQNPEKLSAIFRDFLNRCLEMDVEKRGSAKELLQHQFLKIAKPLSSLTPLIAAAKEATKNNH
Method in brief: as §1

PKACα = target: T9, PKACα (Homo sapiens, UniProt P17612)
T9 construct: gene PRKACA
Method in brief: as §1

FGFR4(V550L) = FGFR4(V550L) (Homo sapiens, UniProt P22455, V550L)
Method in brief: as §1

EPHB3 = EPHB3 (Homo sapiens, UniProt P54753)
Method in brief: as §1

RSK2 = target: T10, RSK2 (Homo sapiens, UniProt P51812)
T10 construct: gene RPS6KA3
Method in brief: as §1

AurB = target: T11, AurB (Homo sapiens, UniProt Q96GD4)
T11 construct: gene AURKB
Method in brief: as §1

DYRK2 = DYRK2 (Homo sapiens, UniProt Q92630)
Method in brief: as §1

FAK = target: T12, FAK (Homo sapiens, UniProt Q05397)
T12 construct: gene PTK2
Method in brief: as §1

MRCKβ = target: T13, MRCKβ (Homo sapiens, UniProt Q9Y5S2)
T13 construct: gene CDC42BPB
Method in brief: as §1

PIM2 = PIM2 (Homo sapiens, UniProt Q9P1W9)
Method in brief: as §1

JNK1 = target: T14, JNK1 (Homo sapiens, UniProt P45983)
T14 construct: gene MAPK8
Method in brief: as §1

MSK1 = target: T15, MSK1 (Homo sapiens, UniProt O75582)
T15 construct: gene RPS6KA5
Method in brief: as §1

EGFR(T790M/L858R) = EGFR(T790M/L858R) (Homo sapiens, UniProt P00533, L858R/T790M)
Method in brief: as §1

CDC7/ASK = CDC7/ASK (Homo sapiens, UniProt O00311)
Method in brief: as §1

JAK2 = JAK2 (Homo sapiens, UniProt O60674)
Method in brief: as §1

MET(D1228H) = MET(D1228H) (Homo sapiens, UniProt P08581, D1228H)
Method in brief: as §1

MARK3 = MARK3 (Homo sapiens, UniProt P27448)
Method in brief: as §1

BRSK2 = BRSK2 (Homo sapiens, UniProt Q8IWQ3)
Method in brief: as §1

T1 sequence (Q8N568 whole entry): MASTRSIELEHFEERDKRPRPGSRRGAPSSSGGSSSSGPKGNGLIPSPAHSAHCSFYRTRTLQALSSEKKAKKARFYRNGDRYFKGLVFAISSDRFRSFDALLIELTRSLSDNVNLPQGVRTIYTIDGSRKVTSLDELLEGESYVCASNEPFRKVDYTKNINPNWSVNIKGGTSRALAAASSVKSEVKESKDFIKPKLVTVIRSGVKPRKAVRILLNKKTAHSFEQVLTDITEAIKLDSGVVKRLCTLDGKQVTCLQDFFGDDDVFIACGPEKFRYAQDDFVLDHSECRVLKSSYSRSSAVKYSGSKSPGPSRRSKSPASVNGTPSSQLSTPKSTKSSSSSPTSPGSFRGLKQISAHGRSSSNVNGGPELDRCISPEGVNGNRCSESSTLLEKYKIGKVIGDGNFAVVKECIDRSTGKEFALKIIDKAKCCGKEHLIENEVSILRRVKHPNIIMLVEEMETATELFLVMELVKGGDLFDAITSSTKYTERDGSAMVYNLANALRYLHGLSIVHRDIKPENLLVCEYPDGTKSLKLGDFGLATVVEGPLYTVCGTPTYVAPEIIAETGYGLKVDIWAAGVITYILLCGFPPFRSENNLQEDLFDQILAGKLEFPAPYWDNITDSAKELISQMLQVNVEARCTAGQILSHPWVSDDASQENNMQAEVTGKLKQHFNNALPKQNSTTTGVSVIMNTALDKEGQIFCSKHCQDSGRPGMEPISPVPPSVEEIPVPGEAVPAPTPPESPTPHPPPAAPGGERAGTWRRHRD

c1cc(-c2ccc3[nH]ncc3c2)ccn1 [TG693, 5-(4-pyridinyl)-1H-indazole]
inhibition at 1 µM (DCAMKL2): 9.6% | inhibition at 1 µM (RET(Y791F)): 3% | inhibition at 1 µM (SRM): 1.5% | inhibition at 1 µM (LOK): 5.9% | inhibition at 1 µM (RSK1): -4.7% | inhibition at 1 µM (CK1γ2): -3.2% | inhibition at 1 µM (TBK1): 5.8% | inhibition at 1 µM (LCK): -8.4% | inhibition at 1 µM (PASK): 14.7% | inhibition at 1 µM (LYNb): 0.8% | inhibition at 1 µM (AurC): 2.5% | inhibition at 1 µM (JAK3): 11.6% | inhibition at 1 µM (ACK): -1.1% | inhibition at 1 µM (PAK1): -3.8% | inhibition at 1 µM (PKACα): 9.5% | inhibition at 1 µM (FGFR4(V550L)): -36.6% | inhibition at 1 µM (EPHB3): -0.5% | inhibition at 1 µM (RSK2): 2.1% | inhibition at 1 µM (AurB): 6.1% | inhibition at 1 µM (DYRK2): 77.2% | inhibition at 1 µM (FAK): 3.6% | inhibition at 1 µM (MRCKβ): -7.3% | inhibition at 1 µM (PIM2): -3.5% | inhibition at 1 µM (JNK1): -18% | inhibition at 1 µM (MSK1): 1.2% | inhibition at 1 µM (EGFR(T790M/L858R)): 1.3% | inhibition at 1 µM (CDC7/ASK): 10.8% | inhibition at 1 µM (JAK2): 7.9% | inhibition at 1 µM (MET(D1228H)): 0.6% | inhibition at 1 µM (MARK3): 15.5% | inhibition at 1 µM (BRSK2): 6.7%
